Measured values as given in patent US4505893A, “Purified plasminogen activator, process for its production and thrombolytic composition containing it” (Asahi Kasei Kogyo Kabushiki Kaisha, priority 1982, dated 1985).
Square brackets hold non-standard residues; d marks the D form. Peptide text beside a SMILES is read from it. * marks the point of attachment. Sta = CC(C)C[C@H](N)[C@@H](O)CC(=O)O; Isovaleryl = CC(C)CC(=O)*

Tests used:
urokinase = urokinase (Homo sapiens, UniProt P00749); experiment: biochemical
[1] = target: T1, substance of this invention (plasminogen activator) (Homo sapiens, UniProt P00750); experiment: biochemical
T1 construct: endogenous in cells

fibrin = experiment: Affinity to fibrin (incorporation into formed fibrin); type: binding; settings: 500 U/ml (urokinase 500 IU/ml); plasminogen-free fibrinogen + thrombin, 1 hour at room temperature; extracted with 2M ammonium thiocyanate
[2] = Hydrolysis activity on various organic substrates; type: biochemical; settings: 37° C. 15 minutes, 1 μM aminomethylcoumarin = 100%, substance 100 U/ml, urokinase 120 IU/ml
plasminogen = experiment: Enhancement of activity with fibrin (plasminogen activation, Boc-Val-Leu-Lys-MCA); type: biochemical; settings: 5 U/ml (urokinase 5 IU/ml), 25° C. 1 hour, 10 μM aminomethylcoumarin = 100%

T1 sequence (P00750 36-562): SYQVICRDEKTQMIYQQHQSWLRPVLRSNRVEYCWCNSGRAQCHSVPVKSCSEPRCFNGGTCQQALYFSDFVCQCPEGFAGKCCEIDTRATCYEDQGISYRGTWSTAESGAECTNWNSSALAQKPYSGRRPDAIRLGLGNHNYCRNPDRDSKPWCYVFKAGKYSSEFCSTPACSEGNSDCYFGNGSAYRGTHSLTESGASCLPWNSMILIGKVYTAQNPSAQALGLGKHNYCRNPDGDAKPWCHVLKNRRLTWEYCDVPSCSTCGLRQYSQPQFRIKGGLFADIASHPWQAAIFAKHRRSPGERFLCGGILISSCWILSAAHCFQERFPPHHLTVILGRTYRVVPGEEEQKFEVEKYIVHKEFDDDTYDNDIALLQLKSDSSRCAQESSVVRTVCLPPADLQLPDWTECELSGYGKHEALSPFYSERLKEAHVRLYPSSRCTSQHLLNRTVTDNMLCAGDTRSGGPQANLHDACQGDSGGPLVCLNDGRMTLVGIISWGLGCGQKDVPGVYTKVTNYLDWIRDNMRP

CC(=O)N[C@@H](CC(C)C)C(=O)N[C@@H](CC(C)C)C(=O)N[C@H](C=O)CCCNC(=N)N [Leupeptin]
IC50 (urokinase): 80.7 µM | IC50 [1]: 47.5 µM

CC(C)C[C@H](NC(=O)[C@@H](NC(=O)N[C@@H](Cc1ccccc1)C(=O)O)[C@@H]1CCN=C(N)N1)C(=O)N[C@H](C=O)Cc1ccccc1 [Chymostatin]
IC50 (urokinase): > 160 µM | IC50 [1]: > 160 µM

urokinase
proportion of the substance incorporated in the fibrin (fibrin): not incorporated in the fibrin at all | Hydrolysis Activity (%) ([2]; substrate Boc-Glu-Lys-Lys-MCA 0.1 mM): 2.82% | Hydrolysis Activity (%) ([2]; substrate Boc-Ileu-Glu-Gly-Arg-MCA 0.1 mM): 3.30% | Hydrolysis Activity (%) ([2]; substrate Boc-Phe-Ser-Arg-MCA 0.1 mM): 48.9% | Hydrolysis Activity (%) ([2]; substrate Glt-Gly-Arg-MCA 0.1 mM): 314% | Hydrolysis Activity (%) ([2]; substrate Pro-Phe-Arg-MCA 0.1 mM): 3.89% | Hydrolysis Activity (%) ([2]; substrate Z--Phe-Arg-MCA 0.1 mM): 2.15% | Hydrolysis Activity (%) (plasminogen; fibrinogen added): 5.9% | Hydrolysis Activity (%) (plasminogen; fibrinogen not added): 28%

CCOC(=O)c1ccc(OC(=O)CCCCCNC(=N)N)cc1 [FOY]
IC50 (urokinase): 0.146 µM | IC50 [1]: 12.8 µM

CC(C)CC(=O)N[C@H](C(=O)N[C@H](C(=O)N[C@@H](CC(C)C)[C@@H](O)CC(=O)N[C@@H](C)C(=O)N[C@@H](CC(C)C)[C@@H](O)CC(=O)O)C(C)C)C(C)C [Pepstatin] (Isovaleryl-VV[Sta]A[Sta]-OH)
IC50 (urokinase): > 100 µM | IC50 [1]: > 100 µM
